According to US5980913A, “Peptides having immunomodulatory activity” (Biochem Pharma, Inc., priority 1994, dated 1999):
Where a SMILES comes first, the peptide text is derived from it. [ ]: non-standard residue; d: D form.

Experiments:
B cells = assay: Activation of B cells by mitogenic proliferation (LPS, PWM); assay type: cell-based, C57BL/6 mice
Excerpt: (§1) c) Activation of T or B cells by Mitogenic Proliferation
(§2) A mitogenic lectin (mitogen) is a glycoprotein which binds and cross-links specific cells surface carbohydrate determinants, and will polyclonally stimulate lymphoid cells. Lymphocyte activation by either antigens or mitogens results in intracellular changes and the subsequent development into a lymphoblast. Mitogenic stimulation of lymphocytes in vitro is believed to mimic the series of events which occur in vivo following their stimulation by specific antigens. PHA and ConA; PWM and LPS mitogens can be used as a measurement of T cell and B cell activity, respectively. Briefly, the spleen mononuclear leukocytes from C57BL/6 mice are incubated in the presence or absence of mitogens with or without candidate drugs. After 72 hours or 5 days, ^3 H-thymidine incorporation is recorded as an indication of cell proliferation.
(§3) Lymphocytes were isolated from mice spleen or human blood in accordance to methods well known in the art. 100 μl of cell suspension of 2×10^6 cells/ml was added per well (2x10^5 cells/well) and incubated in the presence of lectin at the following concentrations:
PWM=0.2 to 0.02% final concentration
(§4) Cells were incubated for 3 days with PHA or ConA, or 5 days with PWM or LPS. 1 μCi of tritiated thymidine was added to each well for the last 6 hours (or 0.5 μCi for 18 hrs). The cells were harvested in a cell Harvester (Tortech®) and counted in a Beta counter.

T cells = assay: Activation of T cells by mitogenic proliferation (ConA, PHA); assay type: cell-based, C57BL/6 mice
Excerpt: as §1, §2, §3
PHA=0.01% to 0.001% final concentration
as §4

P815 target cells = assay: Cytotoxic T lymphocytes (CTL) assay, 51Cr release, after 5 days mixed culture with drug; assay type: cell-based, C57BL/6 mice
Excerpt: (§5) 1. Cytotoxic T Lymphocytes (CTL) Mixed Lymphocyte Reaction (MLR) and Mitogenic Response Assays
(§6) The protocols used are described in Hudson L., Haay F., Pratical immunology, 3rd edition, Blackwell, Scientific publications, Oxford 1989, p. 158-162, and p.447.
(§7) Lymphocytes were isolated from C57BL/6 mice and DBA/2 mice in accordance to techniques well known in the art. Cell concentration was adjusted to 10×10^6 cell/ml for each assay. The cells isolated from DBA/2 mice were irradiated with 3000 Rads.
(§8) In a 6 well plate, each well was set up with:
(§9) The cells were incubated for five days at 37° C. in 5% CO2, after which CTL and MLR assays were performed.
a) Cytotoxic T Lymphocytes (CTL)
P815 target cells were labelled with Cr^51 (0.1 mCi). After labelling, the cells were washed three times and resuspended to a concentration of 5×10^4 cells/ml in media. p T cells were then counted and diluted to obtain a concentration of 2.5×10^6 cells/ml, and then further diluted to obtain the following effector:target ratios:
100 μl of target cells+100 μl of CTLs were incubated for 4 hours. In parallel wells, 100 μl of target cells+100 μl of media were incubated for spntaneous release. After incubation, cells were centrifuged and 100 μl of supernatant was then counted using a gamma counter.
Results are expressed as % specific ^51 Cr release= [formula] where ER=experimental release, SR=spontaneous releaase, and
0 represents less than 20%, + represents 20-40%, ++ represents 40-60%, +++ represent 60-80%, and ++++ represents 80% and over.

[1] = tested on: C57BL/6 lymphocytes with irradiated DBA/2 cells; assay: Mixed lymphocyte reaction (MLR), 3H thymidine uptake; assay type: cell-based, mice
Excerpt: as §5, §6, §7, §8, §9
b) Mixed Lymphocyte Reaction (MLR)
Mixed lymphocyte reaction is an in vitro counterpart of the allograft rejection. Briefly, lymphocyte activation (mitotic response) is obtained when cells from two inbred strains or from two outbred individuals of any species are mixed in in vitro culture. To have a unidirectional response, the proliferation of either cell type may be blocked with X-ray irradiation or mitomycin C treatment. After 4 days incubation, ^3 H thymidine uptake and cytotoxicity assays (CTL) were performed. The cells were then resuspended and 100 μl of cell suspension was deposited in each well of a 96 well plate. 1 μCi of tritiated thymidine was added for 6 hours. After incubation, the cells were then harvested and counted using a Microbeta counter.

[2] = concentration not given, 0 not defined

Compound: NCC(=O)N[C@@H](CC(N)=O)C(=O)N1CCC[C@H]1C(=O)N[C@@H](Cc1ccc(O)cc1)C(=O)O [PEPTIDE #8, H-Gly-Asn-Pro-Tyr-OH] (H-GNPY-OH)
- Activation of B Cells, LPS (B cells; [2]): 0
- Activation of B Cells, PWM (B cells; [2]): 0
- Activation of T Cells, ConA (T cells; [2]): 0
- Activation of T Cells, PHA (T cells; [2]): 0

Compound: NCCCC[C@H](N)C(=O)N[C@@H](CC(N)=O)C(=O)NCC(=O)N[C@@H](Cc1ccc(O)cc1)C(=O)O [PEPTIDE #2, H-Lys-Asn-Gly-Tyr-OH] (H-KNGY-OH)
- Activation of B Cells, LPS (B cells; 10^-8 - 10^-5 M): 1.8 - 3.5 ×
- Activation of B Cells, PWM (B cells; 10^-8 - 10^-5 M): 1.4 - 4.5 ×
- stimulation of B cells in vitro (in words) (B cells; summary of Table 1): stimulates B cells
- CTL, % augmentation compared to IL-2 (IL-2 is 100%) (P815 target cells; 10^-9 M): ++++ (++++ represents 80% and over)
- MLR ([1]; 10^-9 M): 1.8 ×
- Activation of T Cells, ConA (T cells; 10^-12 M - 10^-10 M): 1.3 ×
- Activation of T Cells, PHA (T cells; [2]): 0
- stimulation of T cells in vitro (in words) (T cells; summary of Table 1): stimulates T cells to a moderate extent

Compound: NCCCC[C@H](N)C(=O)N[C@@H](CCC(N)=O)C(=O)N1CCC[C@H]1C(=O)N[C@@H](Cc1ccc(O)cc1)C(=O)O [PEPTIDE #6, H-Lys-Gln-Pro-Tyr-OH] (H-KQPY-OH)
- Activation of B Cells, LPS (B cells; [2]): 0
- Activation of B Cells, PWM (B cells; [2]): 0
- CTL, % augmentation compared to IL-2 (IL-2 is 100%) (P815 target cells; concentration not given): 0 (0 represents less than 20%)
- MLR [1, 2]: 0
- Activation of T Cells, ConA (T cells; [2]): 0
- Activation of T Cells, PHA (T cells; [2]): 0

Compound: NCCCC[C@H](N)C(=O)N[C@@H](CC(N)=O)C(=O)N1CCC[C@H]1C(=O)N[C@@H](Cc1ccccc1)C(=O)O [PEPTIDE #4, H-Lys-Asn-Pro-Phe-OH] (H-KNPF-OH)
- Activation of B Cells, LPS (B cells; [2]): 0
- Activation of B Cells, PWM (B cells; [2]): 0
- CTL, % augmentation compared to IL-2 (IL-2 is 100%) (P815 target cells; concentration not given): 0 (0 represents less than 20%)
- MLR [1, 2]: 0
- Activation of T Cells, ConA (T cells; [2]): 0
- Activation of T Cells, PHA (T cells; [2]): 0

Compound: NCCCC[C@H](N)C(=O)N[C@@H](CC(N)=O)C(=O)N1CCC[C@@H]1C(=O)N[C@@H](Cc1ccc(O)cc1)C(=O)O [PEPTIDE #3, H-Lys-Asn-(D-Pro)-Tyr-OH] (H-KN[dP]Y-OH)
- Activation of B Cells, LPS (B cells; [2]): 0
- Activation of B Cells, PWM (B cells; [2]): 0
- CTL, % augmentation compared to IL-2 (IL-2 is 100%) (P815 target cells; 10^-9 M): ++ (++ represents 40-60%)
- stimulation of CTL in vitro (in words) (P815 target cells; summary of Table 1): stimulate CTL
- MLR [1, 2]: 0
- Activation of T Cells, ConA (T cells; [2]): 0
- Activation of T Cells, PHA (T cells; [2]): 0
